For 20 compounds, IC50 results are on record in patent publication US20090181963A1, “3H-[1,2,3]TRIAZOLO[4,5-D]PYRIMIDINE COMPOUNDS, THEIR USE AS mTOR KINASE AND PI3 KINASE INHIBITORS, AND THEIR [sequence]” (Wyeth, priority 2008, published 2009).

A word on the IC50: it is the concentration that gives 50% inhibition. The low end stands for inhibition by little substance, the high end for a need for much substance.

For one test, the target named is PI3 Kinase α (Homo sapiens, UniProt P42336). Briefly: Fluorescence polarization assay for PI3K (PI3 Kinase α). Type of test: biochemical. The note with it: diC8-PI(4,5)P2 substrate, 25 μM ATP, one hour at 25° C. In general terms: Fluorescence polarisation rises when a labelled molecule tumbles more slowly, as on binding a larger partner.
PI3 Kinase α, sequence (P42336 whole entry): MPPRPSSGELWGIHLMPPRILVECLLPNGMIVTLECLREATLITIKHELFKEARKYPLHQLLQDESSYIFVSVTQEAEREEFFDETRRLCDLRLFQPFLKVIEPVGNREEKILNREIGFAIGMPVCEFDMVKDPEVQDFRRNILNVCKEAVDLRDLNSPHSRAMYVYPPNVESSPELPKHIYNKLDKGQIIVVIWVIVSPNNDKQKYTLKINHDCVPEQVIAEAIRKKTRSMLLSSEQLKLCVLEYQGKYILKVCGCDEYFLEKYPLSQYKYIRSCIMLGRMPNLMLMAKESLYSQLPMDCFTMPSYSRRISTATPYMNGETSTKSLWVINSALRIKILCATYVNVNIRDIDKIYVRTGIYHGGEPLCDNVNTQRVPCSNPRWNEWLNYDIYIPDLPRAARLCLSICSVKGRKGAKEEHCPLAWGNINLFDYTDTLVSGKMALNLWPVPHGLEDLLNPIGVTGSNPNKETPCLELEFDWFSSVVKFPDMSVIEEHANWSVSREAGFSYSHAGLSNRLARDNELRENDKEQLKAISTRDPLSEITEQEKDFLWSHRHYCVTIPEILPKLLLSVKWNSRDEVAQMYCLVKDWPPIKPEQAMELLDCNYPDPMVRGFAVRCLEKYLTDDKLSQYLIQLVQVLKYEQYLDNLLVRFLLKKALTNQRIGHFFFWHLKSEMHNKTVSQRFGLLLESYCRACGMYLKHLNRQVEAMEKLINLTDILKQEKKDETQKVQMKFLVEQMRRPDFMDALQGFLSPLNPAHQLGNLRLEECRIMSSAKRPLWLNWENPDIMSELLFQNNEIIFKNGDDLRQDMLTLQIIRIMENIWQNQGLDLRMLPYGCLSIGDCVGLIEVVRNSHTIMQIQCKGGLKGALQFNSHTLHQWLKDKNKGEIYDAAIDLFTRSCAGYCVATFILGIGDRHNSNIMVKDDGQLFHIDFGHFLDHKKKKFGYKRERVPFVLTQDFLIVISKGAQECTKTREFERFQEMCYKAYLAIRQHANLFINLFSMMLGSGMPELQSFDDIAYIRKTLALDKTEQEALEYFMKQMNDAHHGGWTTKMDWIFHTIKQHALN
PI3 Kinase α, sequence (P27986 whole entry partner): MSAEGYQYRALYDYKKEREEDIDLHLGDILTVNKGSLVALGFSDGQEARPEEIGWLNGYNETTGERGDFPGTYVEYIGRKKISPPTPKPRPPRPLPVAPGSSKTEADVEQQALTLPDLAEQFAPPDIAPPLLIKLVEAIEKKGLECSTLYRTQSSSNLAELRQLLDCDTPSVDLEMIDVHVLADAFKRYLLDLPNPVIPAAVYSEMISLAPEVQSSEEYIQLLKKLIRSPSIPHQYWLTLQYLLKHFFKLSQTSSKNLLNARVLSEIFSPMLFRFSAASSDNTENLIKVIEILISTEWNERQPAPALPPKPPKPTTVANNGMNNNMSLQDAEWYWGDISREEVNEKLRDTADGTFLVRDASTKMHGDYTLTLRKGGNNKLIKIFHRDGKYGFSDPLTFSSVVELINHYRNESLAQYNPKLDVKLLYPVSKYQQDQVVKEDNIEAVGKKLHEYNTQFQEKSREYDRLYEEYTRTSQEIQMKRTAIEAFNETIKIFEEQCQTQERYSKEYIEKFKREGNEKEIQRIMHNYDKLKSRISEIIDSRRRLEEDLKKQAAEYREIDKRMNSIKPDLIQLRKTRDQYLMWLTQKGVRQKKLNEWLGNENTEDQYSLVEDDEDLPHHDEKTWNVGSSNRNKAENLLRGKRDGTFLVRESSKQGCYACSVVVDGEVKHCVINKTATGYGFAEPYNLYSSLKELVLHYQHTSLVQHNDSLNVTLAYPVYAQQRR
For another test, the target named is PI3 Kinase γ (Homo sapiens, UniProt P48736). Put plainly: Fluorescence polarization assay for PI3K (PI3 Kinase γ). Format: biochemical. Conditions: diC8-PI(4,5)P2 substrate, 25 μM ATP, one hour at 25° C.
PI3 Kinase γ, sequence (P48736 whole entry): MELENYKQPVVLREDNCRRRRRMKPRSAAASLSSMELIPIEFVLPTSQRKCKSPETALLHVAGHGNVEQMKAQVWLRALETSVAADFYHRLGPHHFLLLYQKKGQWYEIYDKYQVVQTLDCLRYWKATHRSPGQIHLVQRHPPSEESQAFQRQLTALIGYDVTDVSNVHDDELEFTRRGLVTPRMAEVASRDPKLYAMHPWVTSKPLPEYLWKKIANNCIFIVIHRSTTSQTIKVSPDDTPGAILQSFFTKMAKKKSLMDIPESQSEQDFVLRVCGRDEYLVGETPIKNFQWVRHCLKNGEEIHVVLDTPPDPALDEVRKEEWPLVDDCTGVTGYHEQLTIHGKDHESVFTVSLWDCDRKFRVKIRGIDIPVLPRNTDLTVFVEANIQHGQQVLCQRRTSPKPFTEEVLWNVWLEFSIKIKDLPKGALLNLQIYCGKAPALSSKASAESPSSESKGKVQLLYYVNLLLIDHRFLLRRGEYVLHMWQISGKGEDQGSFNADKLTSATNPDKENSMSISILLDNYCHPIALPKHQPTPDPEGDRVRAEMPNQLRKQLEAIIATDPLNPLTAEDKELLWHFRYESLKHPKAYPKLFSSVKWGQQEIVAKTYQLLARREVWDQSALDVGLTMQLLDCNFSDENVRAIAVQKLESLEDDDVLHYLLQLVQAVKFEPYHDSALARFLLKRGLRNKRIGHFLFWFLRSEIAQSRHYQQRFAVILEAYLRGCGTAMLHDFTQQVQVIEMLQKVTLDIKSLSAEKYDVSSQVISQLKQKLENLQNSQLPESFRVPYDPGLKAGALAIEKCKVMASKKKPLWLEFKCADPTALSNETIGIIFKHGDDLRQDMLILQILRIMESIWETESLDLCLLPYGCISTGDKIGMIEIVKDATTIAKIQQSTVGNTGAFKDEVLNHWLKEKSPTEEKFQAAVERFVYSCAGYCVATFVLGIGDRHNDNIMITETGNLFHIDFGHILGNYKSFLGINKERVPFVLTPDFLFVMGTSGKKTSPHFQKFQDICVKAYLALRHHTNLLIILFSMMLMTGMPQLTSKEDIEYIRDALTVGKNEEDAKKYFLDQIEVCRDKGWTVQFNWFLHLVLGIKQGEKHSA

As for `CC(C)n1nnc2c(N3CCOCC3)nc(-c3ccc(NC(=O)NCCN(C)C)cc3)nc21` [Example 88, 1-[2-(dimethylamino)ethyl]-3-[4-(3-isopropyl-7-morpholin-4-yl-3H-[1,2,3]triazolo[4,5-d]pyrimidin-5-yl)phenyl]urea], the IC50 against PI3 Kinase α was found to be 0.0775 µM; at PI3 Kinase γ it was 0.197 µM.

Turning to `CCCCN1CCC(n2nnc3c(N4CCOCC4)nc(-c4cncc(O)c4)nc32)CC1` [Example 27, 5-[3-(1-butylpiperidin-4-yl)-7-morpholin-4-yl-3H-[1,2,3]triazolo[4,5-d]pyrimidin-5-yl]pyridin-3-ol], the IC50 on PI3 Kinase α is 0.385 µM; against PI3 Kinase γ, 2.53 µM.

In the case of `CC(C)(C)OC(=O)Cn1nnc2c(N3CCOCC3)nc(-c3cccc(CO)c3)nc21` [Example 232, tert-butyl {5-[3-(hydroxymethyl)phenyl]-7-morpholin-4-yl-3H-[1,2,3]triazolo[4,5-d]pyrimidin-3-yl}acetate], the IC50 on PI3 Kinase α turned out to be 0.37 µM; against PI3 Kinase γ, 1.95 µM.

With `CCn1nnc2c(N3CCOCC3)nc(-c3ccc(NC(=O)Nc4ccc(C(=O)N(C)C)cc4)cc3)nc21` [Example 61, 4-({[4-(3-ethyl-7-morpholin-4-yl-3H-[1,2,3]triazolo[4,5-d]pyrimidin-5-yl)phenyl]carbamoyl}amino)-N,N-dimethylbenzamide], the IC50 on PI3 Kinase α was determined as 0.0016 µM; against PI3 Kinase γ it was 0.012 µM.

Turning to `CCCCNC(=O)c1ccc(NC(=O)Nc2ccc(-c3nc(N4CCOCC4)c4nnn(CC)c4n3)cc2)cc1` [Example 62, N-butyl-4-({[4-(3-ethyl-7-morpholin-4-yl-3H-[1,2,3]triazolo[4,5-d]pyrimidin-5-yl)phenyl]carbamoyl}amino)benzamide], the IC50 at PI3 Kinase α stood at 0.006 µM; against PI3 Kinase γ it was 0.033 µM.

`CCn1nnc2c(N3CCOCC3)nc(-c3ccc(NC(=O)NCCN(C)C)cc3)nc21` [Example 34, 1-[2-(dimethylamino)ethyl]-3-[4-(3-ethyl-7-morpholin-4-yl-3H-[1,2,3]triazolo[4,5-d]pyrimidin-5-yl)phenyl]urea]: the IC50 against PI3 Kinase α was 0.132 µM; at PI3 Kinase γ, 0.309 µM.

In the case of `CCn1nnc2c(N3CCOCC3)nc(-c3ccc(NC(=O)Nc4ccc(C(=O)OC)cc4)cc3)nc21` [Example 41, methyl 4-({[4-(3-ethyl-7-morpholin-4-yl-3H-[1,2,3]triazolo[4,5-d]pyrimidin-5-yl)phenyl]carbamoyl}amino)benzoate], the values for the IC50 against PI3 Kinase α and on PI3 Kinase γ were 0.0233 µM and 0.0845 µM, respectively.

Consider `Oc1cccc(-c2nc(N3CCOCC3)c3nnn(CCCCN4CCCC4)c3n2)c1` [Example 205, 3-[7-Morpholin-4-yl-3-(4-pyrrolidin-1-ylbutyl)-3H-[1,2,3]triazolo[4,5-d]pyrimidin-5-yl]phenol], for which the IC50 is 0.332 µM against PI3 Kinase α and 1.21 µM against PI3 Kinase γ.

Take `CCn1nnc2c(N3CCOCC3)nc(-c3ccc(NC(=O)Nc4ccc(C(=O)NCc5ccncc5)cc4)cc3)nc21` [Example 51, 4-({[4-(3-ethyl-7-morpholin-4-yl-3H-[1,2,3]triazolo[4,5-d]pyrimidin-5-yl)phenyl]carbamoyl}amino)-N-(pyridin-4-ylmethyl)benzamide]: the IC50 against PI3 Kinase α amounted to 0.0036 µM; against PI3 Kinase γ, 0.031 µM.

On to `CC(C)n1nnc2c(N3CCOCC3)nc(-c3ccc(NC(=O)Nc4ccc(CO)cc4)cc3)nc21` [Example 84, 1-(4-Hydroxymethyl-phenyl)-3-[4-(3-isopropyl-7-morpholin-4-yl-3H-[1,2,3]triazolo[4,5-d]pyrimidin-5-yl)-phenyl]-urea], for which the IC50 worked out at 0.003 µM against PI3 Kinase α and 0.0345 µM against PI3 Kinase γ.

On to `CCn1nnc2c(N3CCOCC3)nc(-c3ccc(NC(=O)Nc4ccc(C(=O)NCCc5ccccn5)cc4)cc3)nc21` [Example 63, 4-({[4-(3-ethyl-7-morpholin-4-yl-3H-[1,2,3]triazolo[4,5-d]pyrimidin-5-yl)phenyl]carbamoyl}amino)-N-(2-pyridin-2-ylethyl)benzamide], for which the IC50 at PI3 Kinase α is 0.0045 µM; against PI3 Kinase γ it was 0.03 µM.

As for `O=C(Nc1ccc(-c2nc(N3CCOCC3)c3nnn(C4CCN(Cc5ccccc5)CC4)c3n2)cc1)C(F)(F)F` [Example 5, N-{4-[3-(1-benzylpiperidin-4-yl)-7-morpholin-4-yl-3H-[1,2,3]triazolo[4,5-d]pyrimidin-5-yl]phenyl}-2,2,2-trifluoroacetamide], the results for the IC50 at PI3 Kinase α and on PI3 Kinase γ were 0.068 µM and 0.133 µM, respectively.

As for `CC(C)n1nnc2c(N3CCOCC3)nc(-c3ccc(NC(=O)Nc4ccc(F)cc4)cc3)nc21` [Example 87, 1-(4-fluoro-phenyl)-3-[4-(3-isopropyl-7-morpholin-4-yl-3H-[1,2,3]triazolo[4,5-d]pyrimidin-5-yl)-phenyl]-urea], the concentration for half-maximal inhibition (IC50) is 0.0135 µM against PI3 Kinase α and 0.0695 µM on PI3 Kinase γ.

Take `CC(C)(C)C(=O)Nc1ncccc1CN1CCC(n2nnc3c(N4CCOCC4)nc(-c4cncc(O)c4)nc32)CC1` [Example 25, N-[3-({4-[5-(5-hydroxypyridin-3-yl)-7-morpholin-4-yl-3H-[1,2,3]triazolo[4,5-d]pyrimidin-3-yl]piperidin-1-yl}methyl)pyridin-2-yl]-2,2-dimethylpropanamide]: the concentration for half-maximal inhibition (IC50) on PI3 Kinase α stood at 0.143 µM; at PI3 Kinase γ it was 0.407 µM.

`OCc1cccc(-c2nc(N3CCOCC3)c3nnn(-c4cccc(CO)c4)c3n2)c1` [Example 117, [(7-morpholin-4-yl-3H-[1,2,3]triazolo[4,5-d]pyrimidine-3,5-diyl)di-3,1-phenylene]dimethanol]: the IC50 on PI3 Kinase α was found to be 0.0383 µM; on PI3 Kinase γ, 0.144 µM.

`CCn1nnc2c(N3CCOCC3)nc(-c3ccc(NC(=O)Nc4ccc(C(=O)NCCN5CCOCC5)cc4)cc3)nc21` [Example 53, 4-({[4-(3-ethyl-7-morpholin-4-yl-3H-[1,2,3]triazolo[4,5-d]pyrimidin-5-yl)phenyl]carbamoyl}amino)-N-(2-morpholin-4-ylethyl)benzamide]: the IC50 against PI3 Kinase α stood at 0.0035 µM; at PI3 Kinase γ, 0.029 µM.

Turning to `CN(C)CCNC(=O)Nc1ccc(-c2nc(N3CCOCC3)c3nnn(C4CCN(Cc5ccc(F)nc5)CC4)c3n2)cc1` [Example 157, 1-(2-(dimethylamino)ethyl)-3-(4-(3-(1-((6-fluoropyridin-3-yl)methyl)piperidin-4-yl)-7-morpholino-3H-[1,2,3]triazolo[4,5-d]pyrimidin-5-yl)phenyl)urea], the IC50 is 0.061 µM on PI3 Kinase α and 0.144 µM against PI3 Kinase γ.

With `CC(C)n1nnc2c(N3CCOCC3)nc(-c3ccc(NC(N)=O)cc3)nc21` [Example 96, [4-(3-isopropyl-7-morpholin-4-yl-3H-[1,2,3]triazolo[4,5-d]pyrimidin-5-yl)-phenyl]-urea], the IC50 at PI3 Kinase α came out at 0.0497 µM; on PI3 Kinase γ, 0.62 µM.

For `Oc1cncc(-c2nc(N3CCOCC3)c3nnn(C4CCN(Cc5ccc[nH]5)CC4)c3n2)c1` [Example 29, 5-{7-morpholin-4-yl-3-[1-(1H-pyrrol-2-ylmethyl)piperidin-4-yl]-3H-[1,2,3]triazolo[4,5-d]pyrimidin-5-yl}pyridin-3-ol], the IC50 came to 1.14 µM against PI3 Kinase α and 3.11 µM against PI3 Kinase γ.

On to `CC(C)n1nnc2c(N3CCOCC3)nc(-c3ccc(NC(=O)Nc4ccc(N(C)C)cc4)cc3)nc21` [Example 86, 1-(4-dimethylamino-phenyl)-3-[4-(3-isopropyl-7-morpholin-4-yl-3H-[1,2,3]triazolo[4,5-d]pyrimidin-5-yl)-phenyl]-urea], for which the IC50 came to 0.0235 µM against PI3 Kinase α and 0.069 µM against PI3 Kinase γ.
